# System: plasmacytoid dendritic cells
# Assay: Enhanced survival of isolated pDCs, cell viability by flow cytometry
# Format: cell-based, human
# Conditions: 48 hours after treatment with IRM (3 μM) versus without IRM; FIG. 4
# Experimental: Human pDCs were isolated from PBMC by immunomagnetic bead positive selection according to the manufacturer's instructions (Miltenyi Biotec, Inc., Auburn, Calif.). Briefly, PBMC were incubated with pDC-specific antibodies, BDCA-2 or BDCA-4, and the labeled cells were collected with a Miltenyi LS column. The positively selected cells were resuspended in X-Vivo 20 medium. Isolated pDCs were obtained as described in Example 2. The isolated pDCs were incubated in with and without IRM. Cell viability was measured in both cultures by flow cytometry after 24 hours and again after 48 hours. […] Pairwise comparisons of IRM-treated cells to the control group were performed using the Dunnett adjustment to preserve the overall 0.05 level of significance. If there were discrepancies between the 2 methods, the results from the arcsin transformed data were reported.
structure (smiles),measurement,value
"CCOCc1nc2c(N)nc3ccccc3c2n1CC(C)(C)O [IRM, 4-amino-2-ethoxymethyl-α,α-dimethyl-1H-imidazo[4,5-c]quinoline-1-ethanol]",pDC survival (percent viable),statistically significant higher rate of survival
